Data: patent US20250213700A1, “COMPOUNDS, COMPOSITIONS, AND METHODS FOR CELL-SPECIFIC PHARMACOLOGY” (Duke University, priority 2022, published 2025)

Legend:
AMPAR = assay: whole-mount retina, AMPAR-mediated evoked EPSC in retinal ganglion cells; type: cell-based, mouse; conditions: 300 nM, 15 min
Description: (FIG. 6A) Viral strategy (top panel). […] Experimental overview (second panel from the top to bottom panel). Top: whole retina; synaptic current is evoked (stim) and recorded (voltage-clamp of dTomato+ RGC), with ionic and pharmaceutical conditions chosen to isolate the AMPAR or GABAAR. A 10 min baseline is followed by 15 min application of 300 nM Rx^DART.2+30 nM Alexa^647.1DART.2. […] (FIG. 6B) CMPDA.2^DART.2 (left). Electropositive spacer (PDB 3RNN). […] AMPAR structural model (middle) (composite of PDB 5WEO, 3RNN, and 1FTL). Cylinder depicts cell membrane. […] YM90K.1^DART.2 (right). Structural model (PDB 1FTL). […] (FIG. 6C) diazepam.1^DART.2 (left). Structural model (PDB 6HUP). […] GABAAR (middle) structural model (composite of PDB 6HUP and 6HUK). […] Structural model (PDB 6HUK).
Preparation of Retina: Mice were intravitreal injected AAV10 HaloTag™-dTomato to eyes. After 8-12 weeks, the mice killed by cervical dislocation. Both eyes were removed and dissected under a stereo-microscope. Retinas were isolated from the eyecups and placed in oxygenated (95% O2/5% CO2) cold-Ames medium (Sigma-Aldrich), supplemented with 21 mM NaHCO3. After the vitreous body was removed, a retina was cut into 3 pieces, leaving each retina piece attached to a filter paper with 2 mm hole by retina ganglion-cell-side-down. The pieces of retina were stored in bubbled Ames solution at room temperature, then transferred to recording chamber with retina ganglion-cell-side-up for recording.
Whole-cell patch-clamp recording: The brain slices or retinas were perfused with bubbled aCSF at 29-30° C. with a 2 ml/min flow rate. Recordings were made by whole cell patch recording techniques using a Multiclamp 700B amplifier (Molecular Devices, Axon Instruments Inc., Union City, CA). The signals were filtered at 10 KHz and acquired using Digitate 1440A and pClamp 10.7 (Molecular Devices). The recording pipettes (4 MΩ-6 MΩ) were filled with internal solutions. For GABAA receptor-mediated evoked inhibitory postsynaptic currents ([…]) recording, the pipettes filled with Cesium Chloride-based internal solution (in mM) 135 CsCl, 2 MgCl2, 0.5 EGTA, 10 HEPES, 4 Mg-ATP, 0.5 Na-GTP, 10 Na2-phosphocreatine, and QX314 (lidocaine N-ethyl bromide), pH adjusted to 7.3 with CsOH (290 mosm). For AMPA-receptor mediated evoked excitatory postsynaptic currents (eEPSCs) recording, the pipette solution contained (in mM) 130 CsMeS, 1 MgCl2, 0.5 EGTA, 10 HEPES, 4 Mg-ATP, 0.5 Na-GTP, 10 Na2-phosphocreatine, and 4 QX314, pH adjusted to 7.3 with CsOH (290 mosm). For experiment of brain slices and retinas, the eIPSCs or eEPSCs were elicited by electrical stimuli at 0.067 Hz in 0.3-ms duration and 150-300-ρA (60-70% maximum responses) stimulation intensity at a holding potential of −70 mV. The stimulating electrode was placed within 60-100 μm from the recording neuron under voltage-clamp mode. GABA-receptor mediated eIPSCs were isolated in the presence of DNQX ([…] AMPAR antagonist) and AP-V ([…] antagonist) in the bath solution. For AMPA-receptor mediated eEPSCs, added picrotoxin ([…], GABAAR antagonist) and AP-V ([…]) to the bath solution.

[1] = system: +HTP somatostatin interneurons and -HTP neurons of V1 visual cortex; assay: 2P calcium imaging of V1 visual responses after contralateral ventricle infusion, SOM-Cre mice; type: in vivo, mouse
Description: Top left: Mice expressing pan-neuronal GCaMP8s with SOM-specific ^+HTP. Window over V1. DART delivered via the contralateral ventricle. Bottom left: In-vivo and ex-vivo expression and dye capture. Right: Mice presented oriented visual gratings, 2P Ca^2+ imaging obtained before and 5-6 hr after infusion of 0.3 nmole Alexa647.1^DART.2+3 nmole YM90K.1^DART.2 (2 μL volume) into the contralateral ventricle.
Next, it was examined whether this strategy could deliver a pharmacologically active DART to genetically defined cells. A surgery was performed in which AAV DIO +HTPGPI was injected into the V1 visual cortex of SOM-Cre mice for cell-specific expression in somatostatin interneurons, along with a co-injected AAV-GCaMP8s virus for pan-neuronal neural activity monitoring. A cannula was implanted in the contralateral ventricle, and glass window over V1. Following surgical recovery, a mixture of YM90K.1DART.2+Alexa647.1DART.2 was infused. […] To test for pharmacological effects, 2P calcium imaging of +HTP and −HTP was performed while mice were presented with oriented gratings. A reduction in +HTP visual response was apparent 4 hours post DART infusion. This reduction persisted even after 24 hours post infusion.

endogenous AMPARs = assay: all-optical cultured-neuron assay of AMPAR-dependent synaptic transmission; type: cell-based, rat; conditions: DW=Rx50/HTL50
Description: Cultured neuronal assays: Preparation of hippocampal cultures: Mixed glial and neuronal cultures were prepared from the hippocampus of postnatal day 0 to 1 Sprague-Dawley rat pups. Separate pools of dissociated cells were transfected via electroporation (LONZA, V4SP-3096) with plasmid constructs, and depending on assay directives, either plated individually or mixed with a different pool of electroporated cells after a 10 min recovery period. Cells were cultured on coverslips (Deckglaser) pre-treated with high molecular weight poly-D-lysine (Sigma, P7405; 0.05 mg/mL) in 24-well plates and maintained in NbActiv4 (BrainBits, Nb4-500) at 37 C, 5% CO2. Media was changed by half at DIV3 or 4 and then weekly thereafter; experiments were performed between DIV16 to DIV18.

[2] = 5-6 hr after infusion of 3 nmole with 0.3 nmole Alexa647.1DART.2

COc1cc(CCCCl)ccc1CCOCCNC(=O)c1ccc(CNC(=O)CCOCCOCCOCCOCCOCCOCCOCCOCCOCCOCCOCCOCCOCCOCCOCCOCCOCCOCCOCCOCCOCCOCCOCCOCCOCCOCCOCCOCCOCCOCCOCCOCCOCCOCCOCCOCCn2cc(COCCOCCOCCOCCOCCOCCNC(=O)CCCn3c(=O)c(=O)[nH]c4cc([N+](=O)[O-])c(-n5ccnc5)cc43)nn2)cc1 [YM90K.1DART.2]
AMPAR evoked EPSC block, +HTP cells (AMPAR): blocked the AMPAR-mediated EPSC
AMPAR evoked EPSC block, +HTP cells (AMPAR; listed as YM90K.1^DART.2): blocked on ^+HTP cells
responses in +HTP SOM cells [1, 2]: reduced
responses in -HTP putative pyramidal cells [1, 2]: unchanged or increased
+HTP visual response ([1]; 4 hours post DART infusion): reduction
-HTP cells visual response ([1]; 24 hours post infusion): no change or increase in visual response
+HTP cells visual response relative to pre-DART ([1]; 24 hours post infusion, 50% contrast): decrease in visual response
widening of Dosing Window vs DART.1 reagent (endogenous AMPARs): 10 fold
DW (t=15 m) (endogenous AMPARs; ddHTP vs +HTP cells, 15 min): 300
